Source: paper PMC11684029, “Discovery of VU6024578/BI02982816: An mGlu1 Positive Allosteric Modulator with Efficacy in Preclinical Antipsychotic and Cognition Models” (Journal of Medicinal Chemistry, 2024)
“Also recorded” adds a separate entry of the source.

What was measured:
[1] = plasma exposure in satellite mice; type: in vivo; settings: male, C57BL/6JRj, mouse, sc
From the text: (§1) We have also employed here event-related potentials (ERPs) and auditory-evoked oscillations, which serve as critical translational biomarkers, to assess the impact of our investigational drug on sensory processing and cognitive functions, providing valuable data on its potential efficacy in treating disorders like schizophrenia. Detailed description of the methodology, setup specifications and recording procedure and analysis of the 40 Hz auditory steady-state response (ASSR) protocol can be found in Schuelert et al.[27] […] Reduced entrainment of gamma oscillation reflects abnormalities in basic sensory registration and processing but is also associated with impaired higher cognitive functions.[32] ASSR can also be reliably impaired preclinically by different NMDA receptor antagonists.[33],[34] […] Abnormalities associated with the filtering or “gating” of sensory information are among the most consistent findings in schizophrenia research.[35] N100 gating deficits also correlated with negative-cognitive deficits dimensions of schizophrenia[36] and can be modeled preclinically with NMDA receptor antagonists.[37]19d reversed N1 sensory gating deficit induced by MK-801 with the highest dose of 10 mg/kg (Figure 12B). Mean plasma exposures in satellite mice after subcutaneous administration of 19d at 0.8, 4, and 10 mg/kg were 187, 1207, and 2490 nM, respectively.
Male C57BL/6JRj mice (12–14 weeks old, 28–30 g, n = 13–19 per treatment arm) (Janvier Laboratories, Le Genest-Saint-Isle, France) were group housed prior to surgery (four animals per cage) and single housed after surgery under standard light-dark conditions (12 h/12 h, lights on 06:00–18:00) with food and tap water available ad libitum. C57BL/6JRj mice were used as they are well suited for neurophysiological cortical network investigations using EEG techniques (Schuelert et al., 2018). […]

dog mGlu1 = dog mGlu1 (Canis lupus familiaris, UniProt A0A8I3NTE8); assay: mGlu1 PAM assay, dog receptor; type: cell-based; settings: read-out: dog mGlu1 Glumax
Sequence of dog mGlu1 (A0A8I3NTE8 30-1195): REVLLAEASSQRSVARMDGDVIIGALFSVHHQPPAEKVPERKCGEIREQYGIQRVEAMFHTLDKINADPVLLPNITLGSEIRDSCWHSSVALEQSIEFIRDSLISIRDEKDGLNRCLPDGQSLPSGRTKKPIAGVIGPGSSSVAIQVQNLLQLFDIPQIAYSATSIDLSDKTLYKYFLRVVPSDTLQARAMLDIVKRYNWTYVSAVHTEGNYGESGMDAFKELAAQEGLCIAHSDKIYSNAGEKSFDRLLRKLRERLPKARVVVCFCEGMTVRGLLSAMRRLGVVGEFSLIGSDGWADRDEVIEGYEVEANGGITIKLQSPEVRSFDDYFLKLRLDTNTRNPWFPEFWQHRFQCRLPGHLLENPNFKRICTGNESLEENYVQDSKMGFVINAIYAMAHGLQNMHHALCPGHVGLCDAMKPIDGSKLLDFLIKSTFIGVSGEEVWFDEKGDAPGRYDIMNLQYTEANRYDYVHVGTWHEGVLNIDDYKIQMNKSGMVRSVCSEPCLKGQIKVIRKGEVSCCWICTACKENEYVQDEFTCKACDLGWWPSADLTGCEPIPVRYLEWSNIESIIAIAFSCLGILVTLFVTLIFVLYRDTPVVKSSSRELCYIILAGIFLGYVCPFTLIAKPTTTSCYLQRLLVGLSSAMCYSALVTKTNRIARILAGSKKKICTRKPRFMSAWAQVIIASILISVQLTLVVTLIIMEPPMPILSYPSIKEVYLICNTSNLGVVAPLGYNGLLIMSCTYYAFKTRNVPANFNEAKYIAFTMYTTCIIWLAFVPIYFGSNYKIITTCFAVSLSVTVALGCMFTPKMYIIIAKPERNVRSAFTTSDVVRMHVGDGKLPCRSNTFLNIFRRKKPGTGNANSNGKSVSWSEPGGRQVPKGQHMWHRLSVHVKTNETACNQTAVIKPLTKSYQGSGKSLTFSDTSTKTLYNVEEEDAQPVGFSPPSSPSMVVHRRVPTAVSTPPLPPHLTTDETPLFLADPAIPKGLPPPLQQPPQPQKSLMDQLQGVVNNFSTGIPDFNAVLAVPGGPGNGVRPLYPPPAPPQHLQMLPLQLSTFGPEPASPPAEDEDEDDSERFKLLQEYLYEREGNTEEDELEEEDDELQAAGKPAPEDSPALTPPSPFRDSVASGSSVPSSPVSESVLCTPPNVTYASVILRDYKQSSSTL

C57BL/6JRj mice = assay: 40 Hz ASSR, MK-801 induced deficit; type: in vivo; settings: mouse
From the text: as §1
The mGlu2/3 selective agonist LY379268 was used here as a positive control, applied also s.c. at 3 mg/kg dose. […] Data are shown as mean ± SEM (n = 13–19 for each treatment group). *P < 0.05, **P < 0.01, ***P < 0.005 compared with vehicle; #P < 0.05, ##P < 0.01 compared with MK-801. […]
Mice were placed in a plexiglass cage in an attenuated sound box and allowed to adapt to their environment for 20 min before subcutaneous administration of VU6024578 0.8, 4, and 10 mg/kg or vehicle (20% HP-β-CD in water). […] An infrared sensor on the Neurologger recorded the infrared trigger signals and trigger signals were saved in an individual trigger channel. […]

[2] = glutathione trapping of reactive intermediates; type: in vitro ADME
Description: (§2) Across species, 19d had acceptable fraction unbound in both plasma (fu (plasma): 0.03 (human), 0.041 (rat), 0.025 (cyno), 0.039 (dog) and 0.056 (mouse)) and brain (fu (brain): 0.034 (rat) and 0.081 (mouse)).
In Vitro Glutathione Conjugates of 19d
Figure S1. 19d was incubated in rat and human liver microsomes for 1 hr (with and without
NADPH) with 20 µM glutathione.
conjugates, most likely due to reactive intermediate formation from the 2-furanyl southern […]

[3] = plasma protein binding, equilibrium dialysis; type: in vitro ADME, human; settings: fraction unbound
Description: The protein binding of each compound was determined in plasma via equilibrium dialysis employing RED Plates (ThermoFisher Scientific, Rochester, NY). Plasma was added to the 96 well plate containing test compound and mixed thoroughly for a final concentration of 5 μM. Subsequently, an aliquot of the plasma-compound mixture was transferred to the cis chamber (red) of the RED plate, with an phosphate buffer (25 mM, pH 7.4) in the trans chamber. The RED plate was sealed and incubated for 4 h at 37 °C with shaking. At completion, aliquots from each chamber were diluted 1:1 with either plasma (cis) or buffer (trans) and transferred to a new 96 well plate, at which time ice-cold acetonitrile containing internal standard (50 ng/mL carbamazepine) (2 volumes) was added to extract the matrices. The plate was centrifuged (3000 rcf, 10 min) and supernatants transferred and diluted 1:1 (supernatant: water) into a new 96 well plate, which was then sealed in preparation for LC/MS/MS analysis. Each compound was assayed in triplicate within the same 96-well plate. Fraction unbound was determined using the following equation [drawing 1]

[4] = predicted hepatic clearance; type: in vitro ADME, dog
From the text: as §2

PDGF = assay: Eurofins radioligand binding panel; parameters: species or system mouse; settings: agonist radioligand
From the text: (§3) Table S1. Eurofins Lead Profiling Screen Data
(§4) This is a radioligand binding panel of 80 targets including GPCRs, ion channels, transporters and nuclear hormones. Biochemical assay results are presented as the percent inhibition of specific […]
(§5) Results showing an inhibition or stimulation higher than 50% are considered to represent significant effect and are highlighted

sst (non-selective) = assay: Eurofins radioligand binding panel; parameters: species or system mouse; settings: agonist radioligand
From the text: as §3, §4, §5

`Cn1nc(-c2ccnn2C)cc1CNC(=O)c1cc(-c2ccco2)ccc1Cl` [Compound 19d, 2-Chloro-N-((1,2′-dimethyl-1H,2’H-[3,3′-bipyrazol]-5-yl)methyl)-5-(furan-2-yl)benzamide] showed a concentration at 60 min ([1]; 0.8 mg/kg s.c.) of 187 nM, a concentration at 60 min ([1]; 4 mg/kg s.c.) of 1210 nM and a concentration at 60 min ([1]; 10 mg/kg s.c.) of 2490 nM. For the same compound, the Emax (dog mGlu1) was 129%, the “reversal of MK-801 deficit in 40 Hz ASSR intertrial coherence (PFC)” value (shortened to “reversal of MK-801 deficit”) (C57BL/6JRj mice; 0.8 mg/kg s.c.) was “no significant effect” and the “reversal of MK-801 deficit” value (C57BL/6JRj mice; 4 mg/kg s.c.) was “complete reversal”. For the same compound, the “reversal of MK-801 deficit” value (C57BL/6JRj mice; 10 mg/kg s.c.) was “complete reversal”, the glutathione conjugates ([2]; human liver microsomes with glutathione) was “multiple glutathione; also recorded: a number of minor glutathione conjugates with four involving the furanyl ring” and the glutathione conjugates ([2]; rat liver microsomes with glutathione) was “multiple glutathione; also recorded: a number of minor glutathione conjugates with four involving the furanyl ring”. The human fuplasma [3] was 0.03, the “CLhep, dog” value [4] was 23 mL/min/kg and the “% Inhibition at 10 µM” value (PDGF) was -2%. For the same compound, the “% Inhibition at 10 µM” value (sst (non-selective)) was -12%.
